ChEMBL document CHEMBL4177534, “Discovery and evaluation of 1H-pyrrolo[2,3-b]pyridine based selective and reversible small molecule BTK inhibitors for the treatment of rheumatoid arthritis” (Bioorg Med Chem Lett, 2017)

What was measured:
[1] = target: Tyrosine-protein kinase BTK (Homo sapiens, UniProt Q06187); experiment: Inhibition of recombinant human full length BTK preincubated for 10 mins followed by Tk-biotin peptide substrate addition after 90 mins by TR-FRET assay
[2] = Metabolic stability in mouse liver microsomes assessed as metabolism rate; format: ADME, microsome
[3] = Metabolic stability in rat liver microsomes assessed as metabolism rate; format: ADME, microsome
[4] = Metabolic stability in human liver microsomes assessed as metabolism rate; format: ADME, microsome
[5] = target: Tyrosine-protein kinase ITK/TSK (Homo sapiens, UniProt Q08881); experiment: Inhibition of recombinant human full length ITK preincubated for 10 mins followed by Tk-biotin peptide substrate addition after 60 mins by TR-FRET assay
[6] = target: Tyrosine-protein kinase JAK3 (Homo sapiens, UniProt P52333); experiment: Inhibition of recombinant human JAK3 (781 to 1124 residues) preincubated for 10 mins followed by poly-[Glu-Tyr(4:1) substrate addition after 60 mins in presence of ATP by Kinase-Glo assay
[7] = target: Cytoplasmic tyrosine-protein kinase BMX (Homo sapiens, UniProt P51813); experiment: Inhibition of human BMX
[8] = target: Tyrosine-protein kinase BTK (Mus musculus, UniProt P35991); experiment: Inhibition of mouse BTK assessed as decrease in anti-mouse IgD antibody stimulated BCR mediated CD69 upregulation in whole blood preincubated for 1 hr followed by antibody challenge after 4 hrs by flow cytometry
[9] = Clearance in mouse at 3 mg/kg, iv; format: ADME, organism-based; conditions: in vivo
[10] = Volume of distribution at steady state in mouse at 3 mg/kg, iv; format: ADME, organism-based; conditions: in vivo, read-out: Vdss
[11] = Cmax in mouse at 10 mg/kg, po; format: ADME, organism-based; design: dose 10 mg/kg, route oral; conditions: in vivo
[12] = tested on: Mus musculus; experiment: Antiarthritic activity in DBA/1J mouse type-2 collagen-induced arthritis model assessed as reduction in clinical score immunized with type-2 collagen on day 1 and day 21 followed by LPS challenge on day 28 subsequent compound administration po bid by hematoxylin and eosin staining based assay; format: functional, organism-based
[13] = target: Homeodomain-interacting protein kinase 4 (Homo sapiens) (UniProt Q8NE63); experiment: Inhibition of recombinant human full length N-terminal GST-tagged HIPK4 expressed in baculovirus infected Sf9 cells assessed as change in enzyme activity at 1 uM in presence of 2 uM ATP relative to control; design: scale not given: the % may be the effect or the level left
[14] = target: Receptor-type tyrosine-protein kinase FLT3 (Homo sapiens) (UniProt P36888); experiment: Inhibition of recombinant human N-terminal GST-tagged FLT3 (571 to 993 residues) expressed in baculovirus infected Sf9 cells assessed as change in enzyme activity at 1 uM in presence of 2 uM ATP relative to control; design: scale not given: the % may be the effect or the level left
[15] = target: TGF-beta receptor type-2 (Homo sapiens) (UniProt P37173); experiment: Inhibition of recombinant N-terminal GST-tagged TGFBR2 (unknown origin) expressed in baculovirus infected Sf9 cells assessed as change in enzyme activity at 1 uM in presence of 1 uM ATP relative to control; design: scale not given: the % may be the effect or the level left
[16] = target: Inhibitor of nuclear factor kappa-B kinase subunit beta (Homo sapiens) (UniProt O14920); experiment: Inhibition of recombinant human N-terminal GST-tagged IKKbeta expressed in baculovirus infected Sf9 cells assessed as change in enzyme activity at 1 uM in presence of 1 uM ATP relative to control; design: scale not given: the % may be the effect or the level left
[17] = target: Casein kinase I isoform alpha (Homo sapiens) (UniProt P48729); experiment: Inhibition of recombinant human full length N-terminal GST-tagged CK1alpha1 expressed in baculovirus infected Sf9 cells assessed as change in enzyme activity at 1 uM in presence of 1 uM ATP relative to control; design: scale not given: the % may be the effect or the level left
[18] = target: Proto-oncogene tyrosine-protein kinase Src (Homo sapiens) (UniProt P12931); experiment: Inhibition of SRC (unknown origin) assessed as change in enzyme activity in presence of 1 uM ATP relative to control; design: scale not given: the % may be the effect or the level left
[19] = target: Serine/threonine-protein kinase B-raf (Homo sapiens) (UniProt P15056); experiment: Inhibition of recombinant human full length N-terminal GST-tagged BRAF expressed in baculovirus infected Sf9 cells assessed as change in enzyme activity at 1 uM in presence of 1 uM ATP relative to control; design: scale not given: the % may be the effect or the level left
[20] = target: Mitogen-activated protein kinase kinase kinase 1 (Homo sapiens) (UniProt Q13233); experiment: Inhibition of recombinant human N-terminal GST-tagged MEKK1 ([…] residues) expressed in baculovirus infected Sf9 cells assessed as change in enzyme activity at 1 uM in presence of 2 uM ATP relative to control; design: scale not given: the % may be the effect or the level left
[21] = target: Dual specificity mitogen-activated protein kinase kinase 1 (Homo sapiens) (UniProt Q02750); experiment: Inhibition of recombinant full length N-terminal GST-tagged MEK1 (unknown origin) assessed as change in enzyme activity at 1 uM in presence of 1 uM ATP relative to control; design: scale not given: the % may be the effect or the level left
[22] = target: Mitogen-activated protein kinase 3 (Homo sapiens) (UniProt P27361); experiment: Inhibition of recombinant human full length ERK1 assessed as change in enzyme activity at 1 uM in presence of 1 uM ATP relative to control; design: scale not given: the % may be the effect or the level left
[23] = target: Tyrosine-protein kinase Lyn (Homo sapiens) (UniProt P07948); experiment: Inhibition of recombinant human full length N-terminal GST-tagged LYN A expressed in baculovirus infected Sf9 cells assessed as change in enzyme activity at 1 uM in presence of 1 uM ATP relative to control; design: scale not given: the % may be the effect or the level left
[24] = target: Serine/threonine-protein kinase pim-2 (Homo sapiens) (UniProt Q9P1W9); experiment: Inhibition of recombinant human full length N-terminal GST-tagged PIM2 expressed in baculovirus infected Sf9 cells assessed as change in enzyme activity at 1 uM in presence of 1 uM ATP relative to control; design: scale not given: the % may be the effect or the level left
[25] = target: Tyrosine-protein kinase Tec (Homo sapiens) (UniProt P42680); experiment: Inhibition of recombinant full length N-terminal GST-tagged TEC (unknown origin) expressed in baculovirus infected Sf9 cells assessed as change in enzyme activity at 1 uM in presence of 2 uM ATP relative to control; design: scale not given: the % may be the effect or the level left
[26] = target: Aurora kinase A (Homo sapiens) (UniProt O14965); experiment: Inhibition of recombinant full length N-terminal GST-tagged AURORA A (unknown origin) expressed in baculovirus infected Sf9 cells assessed as change in enzyme activity at 1 uM in presence of 2 uM ATP relative to control; design: scale not given: the % may be the effect or the level left
[27] = target: Tyrosine-protein kinase TXK (Homo sapiens) (UniProt P42681); experiment: Inhibition of recombinant N-terminal GST-tagged TXK (unknown origin) expressed in baculovirus infected Sf9 cells assessed as change in enzyme activity at 1 uM in presence of 2 uM ATP relative to control; design: scale not given: the % may be the effect or the level left
[28] = target: PAK 1/CDC42 (Homo sapiens) (UniProt Q13153+P60953); experiment: Inhibition of recombinant human full length N-terminal GST-tagged PAK1/CDC42 expressed in baculovirus infected Sf9 cells assessed as change in enzyme activity at 1 uM in presence of 2 uM ATP relative to control; design: scale not given: the % may be the effect or the level left
[29] = target: STE20-like serine/threonine-protein kinase (Homo sapiens) (UniProt Q9H2G2); experiment: Inhibition of recombinant human full length N-terminal GST-tagged SLK expressed in baculovirus infected Sf9 cells assessed as change in enzyme activity at 1 uM in presence of 2 uM ATP relative to control; design: scale not given: the % may be the effect or the level left

Chain of Serine/threonine-protein kinase pim-2 (Homo sapiens) (Q9P1W9 whole entry, looked up): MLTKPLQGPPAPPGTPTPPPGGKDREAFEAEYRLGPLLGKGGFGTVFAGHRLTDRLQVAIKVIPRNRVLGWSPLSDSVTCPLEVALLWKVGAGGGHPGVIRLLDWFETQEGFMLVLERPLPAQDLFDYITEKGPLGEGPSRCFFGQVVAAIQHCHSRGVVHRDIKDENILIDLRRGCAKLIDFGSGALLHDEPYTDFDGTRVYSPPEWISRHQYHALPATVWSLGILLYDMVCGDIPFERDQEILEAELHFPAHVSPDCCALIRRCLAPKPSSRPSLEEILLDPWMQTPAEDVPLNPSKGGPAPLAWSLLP
Chain of Homeodomain-interacting protein kinase 4 (Homo sapiens) (Q8NE63 whole entry, the tested form may be a part): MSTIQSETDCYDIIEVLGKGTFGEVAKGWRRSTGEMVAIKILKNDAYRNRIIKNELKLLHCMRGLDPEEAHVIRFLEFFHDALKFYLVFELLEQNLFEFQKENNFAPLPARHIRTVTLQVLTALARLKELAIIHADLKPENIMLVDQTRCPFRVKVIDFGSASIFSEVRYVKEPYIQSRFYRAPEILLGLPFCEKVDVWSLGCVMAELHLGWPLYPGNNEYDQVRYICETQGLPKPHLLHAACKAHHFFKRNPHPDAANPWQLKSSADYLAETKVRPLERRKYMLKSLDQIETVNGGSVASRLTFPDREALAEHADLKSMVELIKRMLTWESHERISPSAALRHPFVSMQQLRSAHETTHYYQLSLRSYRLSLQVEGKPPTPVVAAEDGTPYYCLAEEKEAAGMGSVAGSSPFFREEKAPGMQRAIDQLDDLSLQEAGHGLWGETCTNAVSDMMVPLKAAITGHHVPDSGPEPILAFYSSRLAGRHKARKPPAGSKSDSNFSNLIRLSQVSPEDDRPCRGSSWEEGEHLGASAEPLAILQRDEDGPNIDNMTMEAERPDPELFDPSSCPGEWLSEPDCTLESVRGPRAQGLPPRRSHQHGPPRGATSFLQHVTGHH
Chain of Tyrosine-protein kinase JAK3 (P52333 whole entry, the tested form may be a part): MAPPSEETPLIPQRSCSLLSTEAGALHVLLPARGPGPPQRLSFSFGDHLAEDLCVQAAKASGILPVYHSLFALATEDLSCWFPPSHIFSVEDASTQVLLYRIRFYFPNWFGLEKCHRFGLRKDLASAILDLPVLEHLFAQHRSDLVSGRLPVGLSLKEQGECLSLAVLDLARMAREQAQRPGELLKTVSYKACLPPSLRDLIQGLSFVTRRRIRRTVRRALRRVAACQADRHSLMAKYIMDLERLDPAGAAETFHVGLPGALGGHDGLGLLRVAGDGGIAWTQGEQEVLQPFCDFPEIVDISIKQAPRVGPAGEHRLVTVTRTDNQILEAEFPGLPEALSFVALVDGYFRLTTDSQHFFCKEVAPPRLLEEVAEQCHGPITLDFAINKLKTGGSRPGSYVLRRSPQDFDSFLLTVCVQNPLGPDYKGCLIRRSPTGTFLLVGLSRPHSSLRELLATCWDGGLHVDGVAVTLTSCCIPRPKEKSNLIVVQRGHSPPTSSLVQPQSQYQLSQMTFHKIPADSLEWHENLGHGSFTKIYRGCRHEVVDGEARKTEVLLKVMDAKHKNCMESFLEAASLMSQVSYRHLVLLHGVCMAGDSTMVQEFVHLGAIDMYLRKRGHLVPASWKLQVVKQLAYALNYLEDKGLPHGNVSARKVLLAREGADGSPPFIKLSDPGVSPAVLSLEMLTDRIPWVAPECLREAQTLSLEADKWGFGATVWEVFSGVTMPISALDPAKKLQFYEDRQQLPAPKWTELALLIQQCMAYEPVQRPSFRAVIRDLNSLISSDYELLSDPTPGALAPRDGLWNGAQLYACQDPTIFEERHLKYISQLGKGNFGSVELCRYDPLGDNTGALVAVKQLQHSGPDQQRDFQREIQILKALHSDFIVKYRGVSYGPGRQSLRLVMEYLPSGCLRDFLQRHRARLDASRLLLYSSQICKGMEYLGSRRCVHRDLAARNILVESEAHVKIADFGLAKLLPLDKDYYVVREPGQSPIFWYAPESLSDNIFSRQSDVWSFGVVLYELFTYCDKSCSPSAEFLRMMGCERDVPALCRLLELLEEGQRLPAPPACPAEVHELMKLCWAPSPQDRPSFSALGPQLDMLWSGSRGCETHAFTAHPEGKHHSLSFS
Chain of Tyrosine-protein kinase Tec (Homo sapiens) (P42680 whole entry): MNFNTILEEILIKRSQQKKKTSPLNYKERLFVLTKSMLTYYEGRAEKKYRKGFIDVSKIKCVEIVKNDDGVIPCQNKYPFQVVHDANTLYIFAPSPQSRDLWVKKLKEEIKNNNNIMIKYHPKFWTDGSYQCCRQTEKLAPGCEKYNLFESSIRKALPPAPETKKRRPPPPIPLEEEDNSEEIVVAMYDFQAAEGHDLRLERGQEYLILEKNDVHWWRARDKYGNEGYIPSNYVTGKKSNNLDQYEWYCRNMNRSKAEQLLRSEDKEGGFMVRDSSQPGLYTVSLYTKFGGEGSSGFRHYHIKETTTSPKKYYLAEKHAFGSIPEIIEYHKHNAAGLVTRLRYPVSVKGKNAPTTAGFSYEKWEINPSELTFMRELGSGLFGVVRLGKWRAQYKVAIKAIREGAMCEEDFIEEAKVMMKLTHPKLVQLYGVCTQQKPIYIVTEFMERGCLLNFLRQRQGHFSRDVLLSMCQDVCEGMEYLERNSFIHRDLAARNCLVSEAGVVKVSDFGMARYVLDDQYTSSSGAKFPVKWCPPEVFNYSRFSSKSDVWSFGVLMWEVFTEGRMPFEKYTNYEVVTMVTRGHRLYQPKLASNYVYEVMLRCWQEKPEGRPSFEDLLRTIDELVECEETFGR
Chain of Mitogen-activated protein kinase kinase kinase 1 (Homo sapiens) (Q13233 whole entry): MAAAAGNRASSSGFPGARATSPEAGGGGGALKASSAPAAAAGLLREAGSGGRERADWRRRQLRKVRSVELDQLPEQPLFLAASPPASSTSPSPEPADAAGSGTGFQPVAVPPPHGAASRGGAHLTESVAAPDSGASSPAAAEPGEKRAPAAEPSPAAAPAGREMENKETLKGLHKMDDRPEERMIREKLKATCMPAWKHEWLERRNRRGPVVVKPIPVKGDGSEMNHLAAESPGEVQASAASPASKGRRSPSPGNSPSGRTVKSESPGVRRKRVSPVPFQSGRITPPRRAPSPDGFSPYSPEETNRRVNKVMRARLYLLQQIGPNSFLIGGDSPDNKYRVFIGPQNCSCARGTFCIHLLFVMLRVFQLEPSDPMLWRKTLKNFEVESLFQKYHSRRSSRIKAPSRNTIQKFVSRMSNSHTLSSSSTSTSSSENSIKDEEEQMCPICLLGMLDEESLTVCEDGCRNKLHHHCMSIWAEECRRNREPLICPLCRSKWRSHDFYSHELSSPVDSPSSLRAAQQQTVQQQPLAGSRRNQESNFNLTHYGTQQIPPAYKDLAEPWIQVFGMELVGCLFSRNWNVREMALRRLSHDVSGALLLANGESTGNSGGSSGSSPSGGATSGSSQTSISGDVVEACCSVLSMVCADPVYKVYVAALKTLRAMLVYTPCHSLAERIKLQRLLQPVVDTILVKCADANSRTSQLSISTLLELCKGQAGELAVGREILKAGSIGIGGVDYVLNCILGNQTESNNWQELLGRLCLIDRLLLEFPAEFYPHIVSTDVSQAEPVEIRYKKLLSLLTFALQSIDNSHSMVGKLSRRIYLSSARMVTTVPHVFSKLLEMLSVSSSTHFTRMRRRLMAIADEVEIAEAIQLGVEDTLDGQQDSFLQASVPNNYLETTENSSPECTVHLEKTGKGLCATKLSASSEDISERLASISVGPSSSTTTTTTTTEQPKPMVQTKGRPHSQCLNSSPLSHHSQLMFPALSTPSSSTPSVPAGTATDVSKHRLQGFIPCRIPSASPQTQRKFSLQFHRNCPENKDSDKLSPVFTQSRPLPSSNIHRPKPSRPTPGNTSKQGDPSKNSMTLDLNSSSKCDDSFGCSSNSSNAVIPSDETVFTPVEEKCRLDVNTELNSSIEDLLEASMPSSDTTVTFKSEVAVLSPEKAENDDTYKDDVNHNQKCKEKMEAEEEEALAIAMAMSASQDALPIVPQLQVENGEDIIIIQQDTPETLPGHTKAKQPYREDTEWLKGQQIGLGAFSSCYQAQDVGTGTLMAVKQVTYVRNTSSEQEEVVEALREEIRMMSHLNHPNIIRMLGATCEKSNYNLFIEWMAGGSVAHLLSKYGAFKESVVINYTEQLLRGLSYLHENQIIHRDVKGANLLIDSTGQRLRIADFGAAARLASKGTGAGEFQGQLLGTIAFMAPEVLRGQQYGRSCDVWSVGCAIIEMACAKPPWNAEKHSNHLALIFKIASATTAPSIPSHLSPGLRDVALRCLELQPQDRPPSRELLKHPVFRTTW
Chain of Cytoplasmic tyrosine-protein kinase BMX (P51813 whole entry): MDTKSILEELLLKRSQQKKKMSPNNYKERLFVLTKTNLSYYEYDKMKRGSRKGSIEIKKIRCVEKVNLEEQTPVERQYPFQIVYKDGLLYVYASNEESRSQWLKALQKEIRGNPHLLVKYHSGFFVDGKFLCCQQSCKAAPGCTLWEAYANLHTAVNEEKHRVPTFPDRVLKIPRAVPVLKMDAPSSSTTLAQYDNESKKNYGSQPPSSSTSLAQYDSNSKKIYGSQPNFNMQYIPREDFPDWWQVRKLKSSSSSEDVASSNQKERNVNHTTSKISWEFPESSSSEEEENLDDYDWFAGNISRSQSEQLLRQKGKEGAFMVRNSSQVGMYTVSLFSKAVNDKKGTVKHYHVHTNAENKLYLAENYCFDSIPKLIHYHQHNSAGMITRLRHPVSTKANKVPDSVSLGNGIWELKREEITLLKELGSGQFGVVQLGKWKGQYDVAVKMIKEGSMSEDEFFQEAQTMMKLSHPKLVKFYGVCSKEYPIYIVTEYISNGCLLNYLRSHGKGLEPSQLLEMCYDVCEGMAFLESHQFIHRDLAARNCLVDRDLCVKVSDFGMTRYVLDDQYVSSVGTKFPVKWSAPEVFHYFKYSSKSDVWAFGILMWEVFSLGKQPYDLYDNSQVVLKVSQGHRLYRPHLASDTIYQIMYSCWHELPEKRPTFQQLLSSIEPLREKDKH

SMILES: CCN1CCN(Cc2ccc(-c3cc4c(-c5cccc(N6CCOc7cc(C8CC8)cc(F)c7C6=O)c5CO)ccnc4[nH]3)nc2)CC1
- IC50 [1]: 2.6 nM
- Drug metabolism [2]: < 0.04 nmol/min/mg
- Drug metabolism [3]: <= 0.04 nmol/min/mg
- Drug metabolism [4]: < 0.04 nmol/min/mg
- IC50 [5]: > 10000 nM
- IC50 [6]: > 10000 nM
- IC50 [7]: 1550 nM
- IC50 [8]: 159 nM
- clearance [9]: 4.6 mL/min/kg
- Vd [10]: 1.9 L/kg
- Cmax [11]: 2.3 µM
- Activity [12]: Dose-dependent effect
- Activity [13]: 1%
- Activity [14]: -5%
- Activity [15]: 2%
- Activity [16]: 0%
- Activity [17]: -1%
- Activity [18]: -33%
- Activity [19]: 1%
- Activity [20]: 2%
- Activity [21]: -14%
- Activity [22]: 2%
- Activity [23]: -12%
- Activity [24]: 0%
- Activity [25]: -35%
- Activity [26]: -2%
- Activity [27]: -2%
- Activity [28]: 0%
- Activity [29]: -5%

SMILES: O=C1c2c(F)cc(C3CC3)cc2OCCN1c1cccc(-c2ccnc3[nH]c(C4=CCN(C5COC5)CC4)cc23)c1CO
- IC50 [1]: 3.1 nM
- Drug metabolism [2]: < 0.04 nmol/min/mg
- Drug metabolism [3]: < 0.04 nmol/min/mg
- Drug metabolism [4]: < 0.04 nmol/min/mg
- IC50 [5]: > 10000 nM
- IC50 [6]: > 10000 nM
- IC50 [7]: 4680 nM
- IC50 [8]: 364 nM
- clearance [9]: 5.5 mL/min/kg
- Vd [10]: 0.6 L/kg
- Cmax [11]: 7.6 µM
- Activity [12]: Dose-dependent effect
- Activity [13]: 3%
- Activity [14]: -5%
- Activity [15]: 3%
- Activity [16]: 1%
- Activity [17]: 0%
- Activity [18]: -26%
- Activity [19]: -6%
- Activity [20]: 3%
- Activity [21]: -20%
- Activity [22]: 1%
- Activity [23]: -2%
- Activity [24]: 1%
- Activity [25]: -31%
- Activity [26]: -10%
- Activity [27]: 1%
- Activity [28]: 2%
- Activity [29]: -9%
